Source: patent US6737383B1, “Herbicidal oxadiazolidines” (priority 1999, dated 2004)

What was measured:
sourgrass = assay: Test D sourgrass; type: in vivo, Trichachne insularis; conditions: Preemergence, 0 to 100 scale
Excerpt: (§1) Seeds, tubers, or plant parts of Alexandergrass (Brachiaria plantaginea), bermuda-grass (Cynodon dactylon), common pursiane (Portulaca oleracea), common ragweed (Ambrosia elatior), common groundsel (Senecio vulgaris), dallisgrass (Paspalum dilatatum), goosegrass (Eleusine indica), guineagrass (Panicum maximum), itchgrass (Rottboellia exaltata), Johnson grass (Sorghum halepense), large crabgrass (Digitaria sanguinalis), pitted morningglory (Ipomoea lacunosa), purple nutsedge (Cyperus rotundus), sandbur (Cenchrus echinatus), sourgrass (Trichachne insularis), Spanishneedles (Bidens bipinnata), surinam grass (Brachiaria decumbens) and tall mallow (Malva sylvestris) were planted into greenhouse pots of flats containing greenhouse planting medium. Plant species were grown in separate pots or individual compartments. Preemergence applications were made within one day of planting the seed or plant part.
(§2) Test chemicals were formulated in a non-phytotoxic solvent mixture which included a surfactant and applied preemergence to the surface of the pot containing seeds in a sandy loam soil. Untreated control pots and treated pots were placed in the greenhouse for growth and visually evaluated for injury 14 to 21 days after herbicide application. Plant response ratings, summarized in Table C, are based on a 0 to 100 scale where 0 is no injury and 100 is complete control. A dash (−) response means no test result.

Green foxtail = assay: Test D green foxtail; type: in vivo; conditions: Preemergence, 0 to 100 scale
Excerpt: as §1
as §2, with “A dash (−) response means no test result.” left out

rape = assay: Test E rape; type: in vivo, Brassica napus; conditions: Postemergence
How it was run: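 Plants were grown under normal greenhouse practice; for postemergence, in sandy loam soil mixed 60:40 with potting mix, treated at the 1- to 4-leaf stage. The compound was in a non-phytotoxic solvent carrying a surfactant. After roughly 21 to 28 days plants were scored visually against untreated plants.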

scentless chamomile = assay: Test E scentless chamomile; type: in vivo, Matricaria inodora; conditions: Preemergence
kochia = assay: Test E kochia; type: in vivo, Kochia scoparia; conditions: Postemergence
Method: Compounds evaluated in this test were formulated in a non-phytotoxic solvent mixture which included a surfactant and applied to plants that were in the 1- to 4-leaf stage (postemergence application). A mixture of sandy loam soil and greenhouse potting mix in a 60:40 ratio was used for the postemergence test.
Plantings of these crops and weed species were adjusted to produce plants of appropriate size for the postemergence test. All plant species were grown using normal greenhouse practices. Crop and weed species include annual bluegrass (Poa annua), blackgrass (Alopecurus myosuroides), black nightshade (Solanum nigra), chickweed (Stellaria media), common poppy (Papaver rhoeas), deadnettle (Lamium amplexicaule), downy brome (Bromus tectorum), field violet (Viola arvensis), galium (Galium aparine), green foxtail (Setaria viridis), Italian ryegrass (Lolium multiflorum), jointed goatgrass (Aegilops cylindrica), kochia (Kochia scoparia), lambsquarters (Chenopodium album), littleseed canarygrass (Phalaris minor), rape (Brassica napus), redroot pigweed (Amaranthus retroflexus), Russian thistle (Salsola kali), scentless chamomile (Matricaria inodora), spring barley (Hordeum vulgare), sugar beet (Beta vulgaris), sunflower (Helianthus annuus), ivyleaf speedwell (Veronica hederaefolia), spring wheat (Triticum aestivum), winter wheat (Triticum aestivum), wild buckwheat (Polygonum convolvulus), wild mustard (Sinapis arvensis), wild oat (Avena fatua), windgrass (Apera spica-venti) and winter barley (Hordeum vulgare).
Treated plants and untreated controls were maintained in a greenhouse for approximately 21 to 28 days, after which all treated plants were compared to untreated controls and visually evaluated. […] A dash response (-) means no test result.

ladysthumb smartweed = assay: Test C postemergence ladysthumb smartweed; type: in vivo, Polygonum persicaria; conditions: 0 to 100 scale, 0 no effect, 100 complete control
How it was run: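 Visual injury scored 0-100 (100 = complete control) versus untreated plants roughly 14 to 21 days after treatment. Plants were grown to suitable size in 60:40 sandy loam and potting mix, then treated postemergence with surfactant-containing solvent formulations.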

[1] = Rate 250 g/ha, 0 to 100 scale (0 no effect, 100 complete control)
[2] = Rate 500 g/ha, 0 to 100 scale, 0 no effect, 100 complete control

SMILES	Plant response rating, Sourgrass (sourgrass; Rate 32 g/ha, 0 no injury, 100 complete control)	Sourgrass plant response rating (sourgrass; Rate 64 g/ha, 0 no injury, 100 complete control)	Sourgrass plant response rating (sourgrass; Rate 125 g/ha, 0 no injury, 100 complete control)	Plant response rating, Sourgrass (sourgrass; Rate 250 g/ha)	Plant response rating, Green foxtail (Green foxtail; Rate 250 g/ha)	Plant response rating, Green foxtail (Green foxtail; Rate 500 g/ha)	Plant response rating, Rape (rape; Rate 62 g/ha, 0 to 100 scale)	Plant response rating, Rape (rape; Rate 125 g/ha, 0 to 100 scale)	Plant response rating, Rape (rape; [1])	Plant response rating, Scentless chamo (scentless chamomile; Rate 62 g/ha, 0 to 100 scale, 0 no effect, 100 complete control)	Plant response rating, Scentless chamo (scentless chamomile; Rate 125 g/ha, 0 to 100 scale (0 no effect, 100 complete control))	Plant response rating, Scentless chamo (scentless chamomile; Rate 250 g/ha, 0 to 100 scale)	Plant response rating, Kochia (kochia; Rate 62 g/ha, 0 to 100 scale)	Plant response rating, Kochia (kochia; Rate 125 g/ha, 0 to 100 scale)	Plant response rating, Kochia (kochia; [1])	Plant response rating Ladysthumb (ladysthumb smartweed; Rate 140 g/ha)	Plant response rating Ladysthumb (ladysthumb smartweed; Rate 560 g/ha)	Plant response rating, Rape (rape; [2])	Plant response rating, Kochia (kochia; [2])
Cc1cccc(C)c1-n1c(=O)on(C(=O)N(c2ccc(F)cc2F)C(C)C)c1=O [Compound 28]	60	85	100	100	–	–	–	–	–	–	–	–	–	–	–	–	–	–	–
CCn1c(=O)on(C(=O)N(c2ccc(F)cc2)C(C)C)c1=O [Compound 107]	–	–	–	–	100	100	20	30	50	70	80	90	5	20	15	0	30	–	–
CCn1c(=O)on(C(=O)N(c2ccc(F)cc2F)C(C)C)c1=O [Compound 116]	–	–	–	–	–	–	10	0	0	–	–	–	0	0	0	–	–	30	0
